Source: the NIST ThermoML archive (doi:10.1016/j.jct.2010.03.009)
Numbers after ± are expanded uncertainties.

Experiment: mn = molality of the nth substance listed, in mol/kg
Details: 101 kPa, Liquid; for viscosity: Capillary tube (Ostwald / Ubbelohde) method; for mass density: Vibrating tube method

## NC(=O)c1ccccc1O [2-hydroxybenzamide] + C[S+](C)[O-]
293.15 K, m1 = 0.0069
  viscosity: 2.276 ± 0.014 mPa·s
  mass density: 1100.6 ± 0.094 kg/m3
293.15 K, m1 = 0.0091
  viscosity: 2.279 ± 0.014 mPa·s
  mass density: 1100.66 ± 0.094 kg/m3
293.15 K, m1 = 0.0114
  viscosity: 2.282 ± 0.014 mPa·s
  mass density: 1100.72 ± 0.093 kg/m3
293.15 K, m1 = 0.0137
  viscosity: 2.285 ± 0.014 mPa·s
  mass density: 1100.78 ± 0.093 kg/m3
293.15 K, m1 = 0.016
  viscosity: 2.287 ± 0.014 mPa·s
  mass density: 1100.83 ± 0.091 kg/m3
293.15 K, m1 = 0.0183
  viscosity: 2.289 ± 0.014 mPa·s
  mass density: 1100.86 ± 0.091 kg/m3
293.15 K, m1 = 0.0229
  viscosity: 2.294 ± 0.014 mPa·s
  mass density: 1100.92 ± 0.091 kg/m3
298.15 K, m1 = 0.0069
  viscosity: 2.034 ± 0.013 mPa·s
  mass density: 1095.59 ± 0.092 kg/m3
298.15 K, m1 = 0.0091
  viscosity: 2.038 ± 0.013 mPa·s
  mass density: 1095.64 ± 0.09 kg/m3
298.15 K, m1 = 0.0114
  viscosity: 2.042 ± 0.013 mPa·s
  mass density: 1095.68 ± 0.089 kg/m3
298.15 K, m1 = 0.0137
  viscosity: 2.045 ± 0.013 mPa·s
  mass density: 1095.71 ± 0.089 kg/m3
298.15 K, m1 = 0.016
  viscosity: 2.048 ± 0.013 mPa·s
  mass density: 1095.76 ± 0.089 kg/m3
298.15 K, m1 = 0.0183
  viscosity: 2.051 ± 0.013 mPa·s
  mass density: 1095.79 ± 0.088 kg/m3
298.15 K, m1 = 0.0229
  viscosity: 2.056 ± 0.013 mPa·s
  mass density: 1095.8 ± 0.088 kg/m3
303.15 K, m1 = 0.0069
  viscosity: 1.881 ± 0.012 mPa·s
  mass density: 1090.56 ± 0.088 kg/m3
303.15 K, m1 = 0.0091
  viscosity: 1.884 ± 0.012 mPa·s
  mass density: 1090.6 ± 0.088 kg/m3
303.15 K, m1 = 0.0114
  viscosity: 1.887 ± 0.012 mPa·s
  mass density: 1090.63 ± 0.087 kg/m3
303.15 K, m1 = 0.0137
  viscosity: 1.889 ± 0.012 mPa·s
  mass density: 1090.66 ± 0.087 kg/m3
303.15 K, m1 = 0.016
  viscosity: 1.892 ± 0.012 mPa·s
  mass density: 1090.69 ± 0.086 kg/m3
303.15 K, m1 = 0.0183
  viscosity: 1.894 ± 0.012 mPa·s
  mass density: 1090.7 ± 0.086 kg/m3
303.15 K, m1 = 0.0229
  viscosity: 1.899 ± 0.012 mPa·s
  mass density: 1090.73 ± 0.087 kg/m3
308.15 K, m1 = 0.0069
  viscosity: 1.732 ± 0.011 mPa·s
  mass density: 1085.51 ± 0.086 kg/m3
308.15 K, m1 = 0.0091
  viscosity: 1.737 ± 0.011 mPa·s
  mass density: 1085.56 ± 0.086 kg/m3
308.15 K, m1 = 0.0114
  viscosity: 1.742 ± 0.011 mPa·s
  mass density: 1085.59 ± 0.086 kg/m3
308.15 K, m1 = 0.0137
  viscosity: 1.747 ± 0.011 mPa·s
  mass density: 1085.63 ± 0.086 kg/m3
308.15 K, m1 = 0.016
  viscosity: 1.752 ± 0.011 mPa·s
  mass density: 1085.66 ± 0.085 kg/m3
308.15 K, m1 = 0.0183
  viscosity: 1.756 ± 0.011 mPa·s
  mass density: 1085.69 ± 0.085 kg/m3
308.15 K, m1 = 0.0229
  viscosity: 1.763 ± 0.011 mPa·s
  mass density: 1085.72 ± 0.084 kg/m3
310.15 K, m1 = 0.0069
  viscosity: 1.644 ± 0.011 mPa·s
  mass density: 1083.5 ± 0.086 kg/m3
310.15 K, m1 = 0.0091
  viscosity: 1.645 ± 0.011 mPa·s
  mass density: 1083.55 ± 0.085 kg/m3
310.15 K, m1 = 0.0114
  viscosity: 1.646 ± 0.011 mPa·s
  mass density: 1083.58 ± 0.084 kg/m3
310.15 K, m1 = 0.0137
  viscosity: 1.647 ± 0.011 mPa·s
  mass density: 1083.6 ± 0.084 kg/m3
310.15 K, m1 = 0.016
  viscosity: 1.647 ± 0.011 mPa·s
  mass density: 1083.62 ± 0.084 kg/m3
310.15 K, m1 = 0.0183
  viscosity: 1.648 ± 0.011 mPa·s
  mass density: 1083.65 ± 0.084 kg/m3
310.15 K, m1 = 0.0229
  viscosity: 1.649 ± 0.011 mPa·s
  mass density: 1083.66 ± 0.084 kg/m3
313.15 K, m1 = 0.0069
  viscosity: 1.563 ± 0.01 mPa·s
  mass density: 1080.47 ± 0.084 kg/m3
313.15 K, m1 = 0.0091
  viscosity: 1.564 ± 0.01 mPa·s
  mass density: 1080.52 ± 0.084 kg/m3
313.15 K, m1 = 0.0114
  viscosity: 1.565 ± 0.01 mPa·s
  mass density: 1080.55 ± 0.083 kg/m3
313.15 K, m1 = 0.0137
  viscosity: 1.566 ± 0.01 mPa·s
  mass density: 1080.58 ± 0.083 kg/m3
313.15 K, m1 = 0.016
  viscosity: 1.567 ± 0.01 mPa·s
  mass density: 1080.6 ± 0.083 kg/m3
313.15 K, m1 = 0.0183
  viscosity: 1.567 ± 0.01 mPa·s
  mass density: 1080.62 ± 0.083 kg/m3
313.15 K, m1 = 0.0229
  viscosity: 1.569 ± 0.01 mPa·s
  mass density: 1080.64 ± 0.082 kg/m3
